Literature values, collected in article PMC7172884 (Journal of Molecular Biology, 2006).

What was measured:
HAV 3C = molecular target: T1, HAV 3C (Human hepatitis A virus genotype IB, UniProt P08617); conditions: in vitro, partial viral polyprotein (ΔP1-2A-2B) as substrate
T1 sequence (P08617 1520-1738 limits assumed): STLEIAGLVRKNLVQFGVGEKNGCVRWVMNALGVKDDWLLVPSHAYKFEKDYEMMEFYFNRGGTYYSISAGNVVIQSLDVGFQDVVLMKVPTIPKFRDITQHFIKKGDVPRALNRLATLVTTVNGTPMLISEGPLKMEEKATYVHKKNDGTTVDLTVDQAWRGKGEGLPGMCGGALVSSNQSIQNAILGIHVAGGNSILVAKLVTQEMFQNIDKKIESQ

HAV = conditions: HAV-infected cells, inhibitor at 5 μM

**Q.** What does the source list for “N-acetyl-leucyl-alanyl-alanyl-(N,N-dimethyl)-glutamine-fluoromethylketone [inhibitor Ia]”?
**A.** IC50 (HAV 3C): 41 µM; reduction of viral yield (HAV): 25 fold
